Values quoted from earlier work as cited in article PMC3850926, “Evaluation of the adverse event profile and pharmacodynamics of toceranib phosphate administered to dogs with solid tumors at doses below the maximum tolerated dose” (BMC Veterinary Research, 2013).

Key:
human cancer patients = conditions: cited from earlier work
VEGF = test system: VEGF; set-up: method as in PMID 19212818; conditions: human patients; return to baseline during rest period; cited from earlier work

In the case of `CCN(CC)CCNC(=O)c1c(C)[nH]c(/C=C2\C(=O)Nc3ccc(F)cc32)c1C` [sunitinib], the “incidence of PLN” value (human cancer patients; human cancer patients) is listed as “approximately 2.5%”, the “hypertension classified as grade 3” value (human cancer patients; human patients with RCC) is listed as 8% and the “patients that developed hypertension” value (human cancer patients; human patients with renal cell carcinoma (RCC)) is listed as 24%. For the same compound, the “circulating endothelial precursors and plasma VEGF during treatment” value (VEGF) was “increase over time during treatment”.
